Results as given in US10634663B2, “Determination of binding constants by means of equilibrium shifting” (Sovicell GmbH, priority 2014, dated 2020).

Tested on: Human plasma
Assay: Equilibrium shifting: dissociation constant for soluble target and fraction bound to whole human plasma
Experimental: Determination of the affinity or dissociation constants is carried out in an advantageous embodiment according to equation I:
[formula] wherein a plurality of binding constant values for KD^H and KD^P are first inserted into the equation and the respective APA concentrations to be expected for these values are calculated. The calculated APA concentrations are then compared with the measured APA concentration. In a further step, the smallest deviation between the calculated APA concentration and the measured APA concentration is determined by means of a numerical optimization method, preferably the “least squares” optimization method, and the formula γ=(APAmeasured−APAcalculated)^2. The lowest value for the deviation is selected from these deviations. […]
10 μL each of a 10 to 2000 μM stock solution of the test substances is added to the cavities. […] The concentration in the supernatant is determined by means of suitable methods, such as LC/MS/MS or scintillation counting. The unbound fraction of the substance is determined in cavities with the immobilized target relative to the reference samples. This obviates the need for calibration, as long as the signal to concentration ratio for the test substances and the quantitation system used follow a linear course. […]

## CCCCCCCCCCCCCCCC(=O)N[C@@H](CCC(=O)NCCCC[C@H](NC(=O)[C@H](C)NC(=O)[C@H](C)NC(=O)[C@H](CCC(N)=O)NC(=O)CNC(=O)[C@H](CCC(=O)O)NC(=O)[C@H](CC(C)C)NC(=O)[C@H](Cc1ccc(O)cc1)NC(=O)[C@H](CO)NC(=O)[C@H](CO)NC(=O)[C@@H](NC(=O)[C@H](CC(=O)O)NC(=O)[C@H](CO)NC(=O)[C@@H](NC(=O)[C@H](Cc1ccccc1)NC(=O)[C@@H](NC(=O)CNC(=O)[C@H](CCC(=O)O)NC(=O)[C@H](C)NC(=O)[C@@H](N)Cc1cnc[nH]1)[C@@H](C)O)[C@@H](C)O)C(C)C)C(=O)N[C@@H](CCC(=O)O)C(=O)N[C@@H](Cc1ccccc1)C(=O)N[C@H](C(=O)N[C@@H](C)C(=O)N[C@@H](Cc1c[nH]c2ccccc12)C(=O)N[C@@H](CC(C)C)C(=O)N[C@H](C(=O)N[C@@H](CCCNC(=N)N)C(=O)NCC(=O)N[C@@H](CCCNC(=N)N)C(=O)NCC(=O)O)C(C)C)[C@@H](C)CC)C(=O)O [liraglutide]
Calculated from KD^P and [P] 600 μM
  fraction of the peptide bound to whole human plasma (undiluted): 98.8%
Whole human plasma (undiluted)
  peptide dissolved in the plasma in free, or unbound, form: 1.2%
